# Like-named read-outs stand apart in the source and are kept apart here.
# How the values were obtained:
# [1] = test system: partial sciatic nerve ligation model in rats; assay: Analgesic effect in a Seltzer model, evaluation (1): mechanical allodynia, von Frey filaments; type: in vivo; settings: rat, read-out: analgesic effect, % reversal of mechanical allodynia
# Source text: Preparation of Partial Sciatic Nerve Ligation Model in Rats
# Rats are anaesthetized using isoflurane/O2 inhalation anaesthesia. After induction of anesthesia, the left thigh is shaved. An incision was made in the skin just below the hip bone. The muscle was bluntly dissected to expose the sciatic nerve. About one half (½) of the sciatic nerve thickness is tightly ligated with a nylon thread and the wound is closed. The right thigh was used as a sham-operated control. The right thigh underwent an identical procedure with the left hind limb, however, the sciatic nerve was not manipulated or ligated.
# Two weeks after nerve ligation, the effect on mechanical allodynia was assessed using a series of von Frey filaments. For habituation, the rats were placed into a plastic cage on a wire mesh bottom. Von Frey filaments (0.4 to 26 g) were applied to the plantar surface of the rat hind paws from the wire mesh side, and the value of the filament pressure at which the paw was withdrawn was used as a pain threshold. The measurement of mechanical sensitivity of the right and left hind paws was performed to obtain predose mechanical sensitivity. The rats showing the threshold change from 0.6 to 2 g (in nerve ligated side) and 8 to 15 g (in sham operated side) were used in the experiments. On the day before the experiment, the rats were evaluated with a series of von Frey filaments to familiarize them with the test procedure. The adopted animal was administrated with the compounds of the present invention. The compounds of the present invention were homogenized with mortar and pestle and suspended or diluted in 0.5% Methyl Cellulose to prepare 0.03-100 mg/2 mL/kg suspension and orally administered to rat using a syringe attached with a sonde. Post-dose mechanical sensitivities of the right and left hind paws were measured at approximately 1 to 7 hours after drug administration. Percent reversal of mechanical allodynia for each rat was calculated using the following formula. The analgesic effects of the compounds were compared.
# human P2X7 receptor = human P2X7 receptor (Homo sapiens, UniProt Q99572, R270H/Y155H); assay: Evaluation of human P2X7 receptor inhibitory activity (Yo-Pro uptake, BzATP stimulation, FLIPR TETRA); type: cell-based
# In short: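 Yo-Pro dye uptake triggered by BzATP was monitored by FLIPR in human P2X7-transfected 1321N1 cells (SNP variant) in HEPES-buffered HBSS, pH 7.4-7.5. Compound was dispensed 8 min post-stimulation, then signal read for 20 min; IC50 derived logistically from inhibition of the fluorescence range.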
# [2] = 3 hours after oral administration of 3 mg/kg
# [3] = 1321N1 cells stably expressing human P2X7 receptor, BzATP stimulation, Yo-Pro uptake, read-out: IC50 (antagonistic activity for the human P2X7 receptor)
# [4] = 5 hours after oral administration of 3 mg/kg
# [5] = antagonistic activity for the human P2X7 receptor, read-out: IC50
Compound,IC50 (human P2X7 receptor; [3]) [µM],"inhibition in vivo at 3 mg/kg [1, 4] [%]",also measured
COc1cn(Cc2ccc(F)c(Cl)c2)c(Nc2cc3sc(C)nc3cc2C)nc1=O [Compound I-0005],0.005,,"inhibition in vivo at 3 mg/kg [1, 2]: 45%"
COc1cn(Cc2ccc(F)c(Cl)c2)c(Nc2cc(C)c(Cl)cc2C)nc1=O [Compound I-0006],0.006,,"inhibition in vivo at 3 mg/kg [1, 2]: 49%"
COc1ccc(C)c(Nc2nc(=O)c(OC)cn2Cc2ccc(F)c(Cl)c2)c1 [Compound I-0354],0.003,,"inhibition in vivo at 3 mg/kg [1, 2]: 51%"
COc1cn(Cc2ccc(F)c(Cl)c2)c(Nc2ccc(OC(F)F)cc2C)nc1=O [Compound I-0365],0.018,55,
COc1cc(C)c(Nc2nc(=O)c(OC)cn2Cc2cc(F)cc(F)c2)cc1C [Compound I-0372],0.005,,"inhibition in vivo at 3 mg/kg [1, 2]: 64%"
CCOc1ccc(Nc2nc(=O)c(OC)cn2Cc2cc(F)c(F)c(F)c2)c(C)c1 [Compound I-0702],0.011,58,
COc1cn(Cc2cc(F)c(F)c(F)c2)c(Nc2ccc(OC(F)F)cc2C)nc1=O [Compound I-0707],0.014,,inhibition in vivo at 3 mg/kg ([1]; 7 hours after oral administration of 3 mg/kg): 53%
COc1ccc(Nc2nc(=O)c(F)cn2Cc2cc(F)cc(F)c2)c(C)c1 [Compound I-0842],0.005,69,
COc1cn(Cc2cc(F)c(F)c(F)c2)c(Nc2cc3c(cc2C)COC3)nc1=O [Compound I-0910],0.014,45,
COc1ccc(Nc2nc(=O)c(F)cn2Cc2cc(F)c(F)c(F)c2)c(C)c1 [Compound I-1040],0.006,,"inhibition in vivo at 3 mg/kg [1, 2]: 49%"
Cc1cc2c(cc1Nc1nc(=O)c(F)cn1Cc1cc(F)c(F)c(F)c1)COC2 [Compound I-1041],0.009,48,
COc1cc(Nc2nc(=O)c(F)cn2Cc2cc(F)cc(F)c2)c(C)cc1F [Compound I-1050],0.01,46,
COc1ccc(C)c(Nc2nc(=O)c(F)cn2Cc2cc(F)c(F)c(F)c2)c1 [Compound I-1066],0.003,63,
O=C1CCCc2c(Nc3nc(=O)c(F)cn3Cc3cc(F)c(F)c(F)c3)cccc21 [Compound I-1108],0.004,42,
Cc1cc(Nc2nc(=O)c(F)cn2Cc2cc(F)c(F)c(F)c2)c(C)nc1OC(F)F [Compound I-1232],0.006,55,
COc1cc(C)c(Nc2nc(=O)c(C)nn2Cc2cc(F)cc(F)c2)cc1OC [Compound I-1261],0.016,54,
COc1cc(C)c(Nc2nc(=O)cnn2Cc2cc(F)c(F)c(F)c2)cc1OC [Compound I-1281],0.004,48,
Cc1nc2cc(C)c(Nc3nc(=NC#N)c(F)cn3Cc3cc(F)c(F)c(F)c3)cc2s1 [Compound I-1286],,,IC50 (human P2X7 receptor; [5]): < 0.01 µM
COc1cc(C)c(Nc2nc(=NC#N)c(OC)cn2Cc2cc(F)c(F)c(F)c2)cc1OC [Compound I-1287],,,IC50 (human P2X7 receptor; [5]): 0.01 to 0.1 µM
COc1cc(C)c(Nc2nc(=NC#N)c(F)cn2Cc2cc(F)c(F)c(F)c2)cc1OC [Compound I-1288],,,IC50 (human P2X7 receptor; [5]): 0.01 to 0.1 µM
CN=c1nc(Nc2cc(C)ccc2C)n(Cc2cc(F)c(F)c(F)c2)cc1F [Compound I-1289],,,IC50 (human P2X7 receptor; [5]): 0.1 to 0.5 µM
Cc1ccc(C)c(Nc2nc(=NO)c(F)cn2Cc2cc(F)c(F)c(F)c2)c1 [Compound I-1290],0.021,,
CON=c1nc(Nc2cc3sc(C)nc3cc2C)n(Cc2cc(F)c(F)c(F)c2)cc1F [Compound I-1291],,,IC50 (human P2X7 receptor; [5]): 0.1 to 0.5 µM
CON=c1nc(Nc2cc(C)ccc2C)n(Cc2cc(F)c(F)c(F)c2)cc1F [Compound I-1292],,,IC50 (human P2X7 receptor; [5]): 0.1 to 0.5 µM
Cc1ccc(C)c(Nc2nc(=NC#N)c(F)cn2Cc2cc(F)c(F)c(F)c2)c1 [Compound I-1293],,,IC50 (human P2X7 receptor; [5]): < 0.01 µM
Cc1ccc(C)c(Nc2nc(=N)c(F)cn2Cc2cc(F)c(F)c(F)c2)c1 [Compound I-1294],,,IC50 (human P2X7 receptor; [5]): 0.01 to 0.1 µM
Cc1ccc(F)cc1Nc1nc(=O)c(F)cn1Cc1cc(F)c(F)c(F)c1 [Compound I-1295],0.013,,"inhibition in vivo at 3 mg/kg [1, 2]: 51%"
COc1ccc(F)c(Nc2nc(=O)c(F)cn2Cc2cc(F)c(F)c(F)c2)c1 [Compound I-1296],0.011,,"inhibition in vivo at 3 mg/kg [1, 2]: 59%"
COc1ccc(Nc2nc(=O)c(F)cn2Cc2cc(F)cc(F)c2)c(C)c1F [Compound I-1297],0.016,49,
